Laboratory results from patent publication US20210395239A1 (Hoffmann-La Roche Inc., priority 2018, published 2021).
pIC50: −log10 of the molar value.

biological target: T1, hTLR9 (Homo sapiens, UniProt Q9NR96); experiment: HEK293-Blue-hTLR-9 cells assay (SEAP reporter, ODN2006 stimulation); assay type: cell-based; set-up: host or cells: HEK293 (HEK-Blue hTLR9); conditions: HEK293-Blue-hTLR9 cells, ODN2006, 20 hrs; read-out: HEK/hTLR9 IC50
T1 sequence (Q9NR96 26-1032): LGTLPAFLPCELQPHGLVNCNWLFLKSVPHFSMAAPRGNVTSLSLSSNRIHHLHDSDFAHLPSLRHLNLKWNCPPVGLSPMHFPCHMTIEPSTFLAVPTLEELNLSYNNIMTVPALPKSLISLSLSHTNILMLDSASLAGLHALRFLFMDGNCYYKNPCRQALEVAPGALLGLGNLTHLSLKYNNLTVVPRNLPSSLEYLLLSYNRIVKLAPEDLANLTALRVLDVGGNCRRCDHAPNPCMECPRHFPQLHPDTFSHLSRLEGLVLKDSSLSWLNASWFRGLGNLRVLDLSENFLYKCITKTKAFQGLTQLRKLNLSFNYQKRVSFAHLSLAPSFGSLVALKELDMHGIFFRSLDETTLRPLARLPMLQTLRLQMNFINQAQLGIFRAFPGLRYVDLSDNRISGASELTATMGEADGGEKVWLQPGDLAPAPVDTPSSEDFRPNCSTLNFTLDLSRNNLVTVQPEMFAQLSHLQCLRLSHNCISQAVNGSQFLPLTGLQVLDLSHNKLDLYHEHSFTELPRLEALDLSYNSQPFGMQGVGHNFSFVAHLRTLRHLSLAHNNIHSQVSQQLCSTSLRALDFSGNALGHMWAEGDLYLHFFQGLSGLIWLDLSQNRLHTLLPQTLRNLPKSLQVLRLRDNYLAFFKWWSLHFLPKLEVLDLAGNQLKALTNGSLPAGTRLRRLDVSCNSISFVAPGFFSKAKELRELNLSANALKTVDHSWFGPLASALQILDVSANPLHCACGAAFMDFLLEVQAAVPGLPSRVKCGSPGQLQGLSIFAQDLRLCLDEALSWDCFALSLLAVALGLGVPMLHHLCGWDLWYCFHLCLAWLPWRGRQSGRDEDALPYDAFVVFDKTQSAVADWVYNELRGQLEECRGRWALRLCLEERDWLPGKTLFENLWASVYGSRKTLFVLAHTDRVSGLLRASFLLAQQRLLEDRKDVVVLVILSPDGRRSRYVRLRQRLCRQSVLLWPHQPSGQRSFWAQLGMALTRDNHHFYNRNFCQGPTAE
Summary of the method: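 Antagonism read as lowered SEAP reporter absorbance (620–655 nm, QUANTI-Blue, 2 h, 37 °C) in supernatants. Before that, ODN2006-stimulated HEK293-Blue cells stably expressing human TLR9 were exposed to compound dilutions at 1% final DMSO for 20 h at 37 °C.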

SMILES | pIC50
Cc1cc(N2CCN(C[C@H]3CN(c4ccc(C#N)c5ncccc45)C[C@@H](C)O3)CC2)nc(N2CCNCC2)n1 [Example 47, 5-[(2R,6S)-2-methyl-6-[[4-(6-methyl-2-piperazin-1-yl-pyrimidin-4-yl)piperazin-1-yl]methyl]morpholin-4-yl]quinoline-8-carbonitrile] | 7.17
COc1cnc(N2CCNCC2)nc1N1CCN(C[C@H]2CN(c3ccc(C#N)c4ncccc34)C[C@@H](C)O2)CC1 [Example 48, 5-[(2S,6R)-2-[[4-(5-methoxy-2-piperazin-1-yl-pyrimidin-4-yl)piperazin-1-yl]methyl]-6-methyl-morpholin-4-yl]quinoline-8-carbonitrile] | 6.92
C[C@@H]1CN(c2ccc(C#N)c3ncccc23)C[C@H](CN2CCN(c3nc(N4CCNCC4)nc4ccccc34)CC2)O1 [Example 49, 5-[(2R,6S)-2-methyl-6-[[4-(2-piperazin-1-ylquinazolin-4-yl)piperazin-1-yl]methyl]morpholin-4-yl]quinoline-8-carbonitrile] | 6.84
C[C@@H]1CN(c2ccc(C#N)c3ncccc23)C[C@H](CN2CCN(c3nc(N4CCNCC4)ncc3C#N)CC2)O1 [Example 50, 5-[(2S,6R)-2-[[4-(5-cyano-2-piperazin-1-yl-pyrimidin-4-yl)piperazin-1-yl]methyl]-6-methyl-morpholin-4-yl]quinoline-8-carbonitrile] | 6.90
C[C@@H]1CN(c2ccc(C#N)c3ncccc23)C[C@H](CN2CCN(c3ncc(C#N)c(N4CCNCC4)n3)CC2)O1 [Example 51, 5-[(2S,6R)-2-[[4-(5-cyano-4-piperazin-1-yl-pyrimidin-2-yl)piperazin-1-yl]methyl]-6-methyl-morpholin-4-yl]quinoline-8-carbonitrile] | 6.92
Cc1cc(N2CCN(C[C@H]3CN(c4ccc(C#N)c5ncccc45)C[C@@H](C)O3)CC2)nc(N2C[C@@H](N)[C@@H](F)C2)n1 [Example 55, 5-[(2S,6R)-2-[[4-[2-[(3R,4S)-3-amino-4-fluoro-pyrrolidin-1-yl]-6-methyl-pyrimidin-4-yl]piperazin-1-yl]methyl]-6-methyl-morpholin-4-yl]quinoline-8-carbonitrile] | 7.49
Cc1cc(N2CCN(C[C@H]3CN(c4ccc(C#N)c5ncccc45)C[C@@H](C)O3)CC2)nc(N2CCOCC(N)C2)n1 (stereo partly drawn) [Example 56, 5-[(2S,6R)-2-[[4-[2-(6-amino-1,4-oxazepan-4-yl)-6-methyl-pyrimidin-4-yl]piperazin-1-yl]methyl]-6-methyl-morpholin-4-yl]quinoline-8-carbonitrile] | 7.47
Cc1cc(N2CCN(C[C@H]3CN(c4ccc(C#N)c5ncccc45)C[C@@H](C)O3)CC2)nc(NC2CNCC2C#N)n1 (stereo partly drawn) [Example 57, 5-[(2S,6R)-2-[[4-[2-[(4-cyanopyrrolidin-3-yl)amino]-6-methyl-pyrimidin-4-yl]piperazin-1-yl]methyl]-6-methyl-morpholin-4-yl]quinoline-8-carbonitrile] | 7.42
Cc1cc(N2CCN(C[C@H]3CN(c4ccc(C#N)c5ncccc45)C[C@@H](C)O3)CC2)nc(N2C[C@@H]3COC[C@@H](C2)N3)n1 [Example 58, 5-[(2R,6S)-2-methyl-6-[[4-[6-methyl-2-[(1R,5R)-3-oxa-7,9-diazabicyclo[3.3.1]nonan-7-yl]pyrimidin-4-yl]piperazin-1-yl]methyl]morpholin-4-yl]quinoline-8-carbonitrile] | 7.35
CO[C@H]1CN(c2nc(C)cc(N3CCN(C[C@H]4CN(c5ccc(C#N)c6ncccc56)C[C@@H](C)O4)CC3)n2)C[C@H]1N [Example 60, 5-[(2R,6S)-2-methyl-6-[[4-[6-methyl-2-[cis-3-amino-4-methoxy-pyrrolidin-1-yl]pyrimidin-4-yl]piperazin-1-yl]methyl]morpholin-4-yl]quinoline-8-carbonitrile] | 7.49
Cc1cc(N2CCN(C[C@H]3CN(c4ccc(C#N)c5ncccc45)C[C@@H](C)O3)CC2)nc(N2CC3(CNCCO3)C2)n1 [Example 61, 5-[(2R,6S)-2-methyl-6-[[4-[6-methyl-2-(5-oxa-2,8-diazaspiro[3.5]nonan-2-yl)pyrimidin-4-yl]piperazin-1-yl]methyl]morpholin-4-yl]quinoline-8-carbonitrile] | 7.49
C[C@@H]1CN(c2ccc(C#N)c3ncccc23)C[C@H](CN2CCN(c3cccc(C4CNCCO4)c3)CC2)O1 (stereo partly drawn) [Example 62, 5-[(2R,6S)-2-methyl-6-[[4-(3-morpholin-2-ylphenyl)piperazin-1-yl]methyl]-morpholin-4-yl]quinoline-8-carbonitrile] | 7.04
Cc1cc(N2CCN(C[C@H]3CN(c4ccc(C#N)c5ncccc45)C[C@@H](C)O3)CC2)nc(N2CC(N)C(F)(F)C2)n1 (stereo partly drawn) [Example 63, 5-[(2S,6R)-2-[[4-[2-(4-amino-3,3-difluoro-pyrrolidin-1-yl)-6-methyl-pyrimidin-4-yl]piperazin-1-yl]methyl]-6-methyl-morpholin-4-yl]quinoline-8-carbonitrile] | 6.61
Cc1cc(N2CCN(C[C@H]3CN(c4ccc(C#N)c5nccnc45)C[C@@H](C)O3)CC2)nc(N2CCNCC2)n1 [Example 64, 8-[(2R,6S)-2-methyl-6-[[4-(6-methyl-2-piperazin-1-yl-pyrimidin-4-yl)piperazin-1-yl]methyl]morpholin-4-yl]quinoxaline-5-carbonitrile] | 7.46
Cc1cc(N2CCN(C[C@H]3CN(c4ccc(C(F)(F)F)c5nccnc45)C[C@@H](C)O3)CC2)nc(N2CCNCC2)n1 [Example 65, (2R,6S)-2-methyl-6-[[4-(6-methyl-2-piperazin-1-yl-pyrimidin-4-yl)piperazin-1-yl]methyl]-4-[8-(trifluoromethyl)quinoxalin-5-yl]morpholine] | 6.89
Cc1cc(N2CCN(C[C@H]3CN(c4ccc(C#N)c5ncccc45)C[C@@H](C)O3)CC2)nc(N2CCNCC(O)C2)n1 (stereo partly drawn) [Example 66, 5-[(2S,6R)-2-[[4-[2-(6-hydroxy-1,4-diazepan-1-yl)-6-methyl-pyrimidin-4-yl]piperazin-1-yl]methyl]-6-methyl-morpholin-4-yl]quinoline-8-carbonitrile] | 7.49
Cc1cc(N2CCN(C[C@H]3CN(c4ccc(C#N)n5ncc(F)c45)C[C@@H](C)O3)CC2)nc(N2CCNCC2)n1 [Example 67, 3-Fluoro-4-[(2R,6S)-2-methyl-6-[[4-(6-methyl-2-piperazin-1-yl-pyrimidin-4-yl)piperazin-1-yl]methyl]morpholin-4-yl]pyrazolo[1,5-a]pyridine-7-carbonitrile] | 7.09
Cc1cc(N2CCNCC2)nc(N2CCN(C[C@H]3CN(c4ccc(C#N)c5ncccc45)C[C@@H](C)O3)CC2)n1 [Example 68, 5-[(2R,6S)-2-methyl-6-[[4-(4-methyl-6-piperazin-1-yl-pyrimidin-2-yl)piperazin-1-yl]methyl]morpholin-4-yl]quinoline-8-carbonitrile] | 7.02
C[C@@H]1CN(c2ccc(C#N)n3ncc(F)c23)C[C@H](CN2CCN(c3ccc(N[C@H]4CNC[C@H]4F)nc3)CC2)O1 [Example 167, 3-fluoro-4-[(2S,6R)-2-[[4-[6-[[(3S,4R)-4-fluoropyrrolidin-3-yl]amino]-3-pyridyl]piperazin-1-yl]methyl]-6-methyl-morpholin-4-yl]pyrazolo[1,5-a]pyridine-7-carbonitrile] | 7.34
C[C@@H]1CN(c2ccc(C#N)n3ncc(F)c23)C[C@H](CN2CCN(c3ccc(N4C[C@H]5NCCO[C@@H]5C4)nc3)CC2)O1 [Example 168, 4-[(2S,6R)-2-[[4-[6-[(4aR,7aR)-3,4,4a,5,7,7a-hexahydro-2H-pyrrolo[3,4-b][1,4]oxazin-6-yl]-3-pyridyl]piperazin-1-yl]methyl]-6-methyl-morpholin-4-yl]-3-fluoro-pyrazolo[1,5-a]pyridine-7-carbonitrile] | 6.94
C[C@@H]1CN(c2ccc(C#N)n3ncc(F)c23)C[C@H](CN2CCN(c3ccc(N4CC5(CNCCO5)C4)nc3)CC2)O1 [Example 169, 3-fluoro-4-[(2R,6S)-2-methyl-6-[[4-[6-(5-oxa-2,8-diazaspiro[3.5]nonan-2-yl)-3-pyridyl]piperazin-1-yl]methyl]morpholin-4-yl]pyrazolo[1,5-a]pyridine-7-carbonitrile] | 7.11
